Results: patent publication US12139520B2 (priority 2020, dated 2024)
Numbered stars: 1 amine (or outer) side, 2 acyl side, 3 side chain; on linkers, the order of the positions; unused ones are H or OH. Bridge positions count the residues as written; N and C are the ends. Square brackets hold non-standard residues; d marks the D form. Peptide text beside a SMILES is read from it. * marks the point of attachment. C20 diacid = O=C(O)CCCCCCCCCCCCCCCCCCC(=O)*; γGlu = O=C(O)[C@H](CCC(=O)[*:2])N[*:1]; Hyp = O=C(O)[C@@H]1C[C@@H](O)CN1

How the values were obtained:
hAMY3 receptor = target: T1, hAMY3 receptor (Homo sapiens, UniProt O60896+P30988); assay: cAMP assay for in vitro receptor activation, hAMY3-R; assay type: cell-based; settings: cAMP assay, hAMY3 receptor; read-out: hAMY3R EC50
T1 sequence (P30988 25-474): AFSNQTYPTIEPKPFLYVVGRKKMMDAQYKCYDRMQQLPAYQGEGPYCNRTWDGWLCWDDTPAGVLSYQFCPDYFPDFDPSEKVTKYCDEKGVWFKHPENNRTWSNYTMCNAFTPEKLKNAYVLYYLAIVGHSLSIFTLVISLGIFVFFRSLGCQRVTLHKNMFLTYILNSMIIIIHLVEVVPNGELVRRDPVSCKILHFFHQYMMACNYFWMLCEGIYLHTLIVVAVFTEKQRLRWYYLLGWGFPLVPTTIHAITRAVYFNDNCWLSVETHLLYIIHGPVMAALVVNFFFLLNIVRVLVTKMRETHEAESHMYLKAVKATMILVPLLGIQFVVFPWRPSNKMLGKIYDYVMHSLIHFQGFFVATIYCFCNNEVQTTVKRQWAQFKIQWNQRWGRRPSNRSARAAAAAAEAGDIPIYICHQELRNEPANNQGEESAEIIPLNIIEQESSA
T1 sequence (O60896 24-148 partner): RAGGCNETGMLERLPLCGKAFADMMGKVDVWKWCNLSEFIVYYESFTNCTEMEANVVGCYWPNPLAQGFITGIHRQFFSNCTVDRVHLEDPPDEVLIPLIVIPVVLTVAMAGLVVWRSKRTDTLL
In short: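 Receptor activation was measured as cAMP accumulation in a monoclonal cell line stably overexpressing hAMY3. Stimulation with graded doses lasted 30 min at room temperature in the presence of 0.5 mM IBMX, with human amylin as positive control.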

hAM1 receptor = hAM1 receptor (Homo sapiens, UniProt O60895+Q16602); assay: cAMP assay for in vitro receptor activation, hAM1-R; assay type: cell-based; settings: cAMP assay, hAM1 receptor; read-out: hAM1R EC50
In short: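 cAMP accumulation was measured in a monoclonal cell line stably overexpressing the hAM1 receptor. Frozen aliquots were thawed and plated at 8000 cells/well in DPBS containing 0.05% casein and 0.5 mM IBMX.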

hAM1 receptor, sequence (Q16602 23-461): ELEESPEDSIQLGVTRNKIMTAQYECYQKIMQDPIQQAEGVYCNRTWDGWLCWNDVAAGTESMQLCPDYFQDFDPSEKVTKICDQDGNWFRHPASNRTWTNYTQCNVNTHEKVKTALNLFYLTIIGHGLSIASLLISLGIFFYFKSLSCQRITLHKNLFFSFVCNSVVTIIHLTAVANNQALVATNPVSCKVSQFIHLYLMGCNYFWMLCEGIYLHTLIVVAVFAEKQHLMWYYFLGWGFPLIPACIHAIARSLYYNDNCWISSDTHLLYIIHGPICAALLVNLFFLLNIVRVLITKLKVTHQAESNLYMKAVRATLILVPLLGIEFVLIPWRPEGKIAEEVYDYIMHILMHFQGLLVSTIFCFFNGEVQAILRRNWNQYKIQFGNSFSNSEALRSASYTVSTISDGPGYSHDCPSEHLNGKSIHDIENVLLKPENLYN
hAM1 receptor, sequence (O60895 43-175 partner): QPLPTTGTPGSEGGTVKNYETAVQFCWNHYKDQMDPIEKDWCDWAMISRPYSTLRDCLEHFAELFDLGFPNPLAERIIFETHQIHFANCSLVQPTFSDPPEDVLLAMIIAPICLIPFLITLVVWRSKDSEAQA

SMILES | EC50 (hAMY3 receptor) | EC50 (hAM1 receptor)
CC[C@H](C)[C@H](NC(=O)[C@H](CCC(N)=O)NC(=O)[C@H](CCC(=O)O)NC(=O)[C@H](C)NC(=O)[C@H](CC(C)C)NC(=O)[C@H](CCCNC(=N)N)NC(=O)[C@H](CCC(N)=O)NC(=O)[C@@H](NC(=O)[C@@H](NC(=O)[C@@H]1CSSC[C@H](NC(=O)[C@H](CCCCN)NC(=O)CC[C@H](NC(=O)CCCCCCCCCCCCCCCCCCC(=O)O)C(=O)O)C(=O)N[C@@H](CC(N)=O)C(=O)N[C@@H]([C@@H](C)O)C(=O)N[C@@H](C)C(=O)N[C@@H]([C@@H](C)O)C(=O)N1)[C@@H](C)O)C(C)C)C(=O)N[C@@H](Cc1ccc(O)cc1)C(=O)N[C@@H](CCC(N)=O)C(=O)N[C@@H](Cc1ccccc1)C(=O)N[C@H](C(=O)N[C@@H](CC(=O)O)C(=O)N[C@@H](CCCCN)C(=O)N[C@@H](CC(=O)O)C(=O)N[C@@H](CCCCN)C(=O)N[C@@H](CC(=O)O)C(=O)N[C@@H](CC(N)=O)C(=O)N[C@H](C(=O)N[C@@H](C)C(=O)N1CCC[C@H]1C(=O)N1CCC[C@H]1C(=O)N[C@H](C(=O)N[C@@H](CC(N)=O)C(=O)N[C@H](C(=O)NCC(=O)N[C@@H](CO)C(=O)N[C@@H](CC(N)=O)C(=O)N[C@H](C(=O)N1C[C@H](O)C[C@H]1C(N)=O)[C@@H](C)O)C(C)C)[C@@H](C)O)C(C)C)[C@@H](C)O [compound 96] ({C20 diacid-γGlu}-KCNTATCTVQRLAEQIYQFTDKDKDNVAPPTNVGSNT[Hyp]-NH2; disulfide 2-7) | 0.016 nM | > 5000 nM
CC[C@H](C)[C@H](NC(=O)[C@H](CCC(N)=O)NC(=O)[C@H](CCC(=O)O)NC(=O)[C@H](C)NC(=O)[C@H](CC(C)C)NC(=O)[C@H](CCCNC(=N)N)NC(=O)[C@H](CCC(N)=O)NC(=O)[C@@H](NC(=O)[C@@H](NC(=O)[C@@H]1CSSC[C@H](NC(=O)[C@@H](N)CCCCN)C(=O)N[C@@H](CC(N)=O)C(=O)N[C@@H]([C@@H](C)O)C(=O)N[C@@H](C)C(=O)N[C@@H]([C@@H](C)O)C(=O)N1)[C@@H](C)O)C(C)C)C(=O)N[C@@H](Cc1ccc(O)cc1)C(=O)N[C@@H](CCC(N)=O)C(=O)N[C@@H](Cc1ccccc1)C(=O)N[C@H](C(=O)N[C@@H](CC(=O)O)C(=O)N[C@@H](CCCCN)C(=O)N[C@@H](CC(=O)O)C(=O)N[C@@H](CCCCN)C(=O)N[C@@H](CC(=O)O)C(=O)N[C@@H](CC(N)=O)C(=O)N[C@H](C(=O)N[C@@H](CO)C(=O)N1CCC[C@H]1C(=O)N1CCC[C@H]1C(=O)N[C@H](C(=O)N[C@@H](CC(N)=O)C(=O)N[C@H](C(=O)NCC(=O)N[C@@H](CO)C(=O)N[C@@H](CC(N)=O)C(=O)NCC(=O)N1C[C@H](O)C[C@H]1C(N)=O)C(C)C)[C@@H](C)O)C(C)C)[C@@H](C)O [compound 66] (H-KCNTATCTVQRLAEQIYQFTDKDKDNVSPPTNVGSNG[Hyp]-NH2; disulfide 2-7) | 0.012 nM | > 5000 nM
CC[C@H](C)[C@H](NC(=O)[C@H](CCC(N)=O)NC(=O)[C@H](CC(=O)O)NC(=O)[C@H](C)NC(=O)[C@H](CC(C)C)NC(=O)[C@H](CCCNC(=N)N)NC(=O)[C@H](CCC(N)=O)NC(=O)[C@@H](NC(=O)[C@@H](NC(=O)[C@@H]1CSSC[C@H](NC(=O)[C@H](CCCCN)NC(=O)CC[C@H](NC(=O)CCCCCCCCCCCCCCCCCCC(=O)O)C(=O)O)C(=O)N[C@@H](CC(N)=O)C(=O)N[C@@H]([C@@H](C)O)C(=O)N[C@@H](C)C(=O)N[C@@H]([C@@H](C)O)C(=O)N1)[C@@H](C)O)C(C)C)C(=O)N[C@@H](Cc1ccc(O)cc1)C(=O)N[C@@H](CCC(N)=O)C(=O)N[C@@H](Cc1ccccc1)C(=O)N[C@H](C(=O)N[C@@H](CC(=O)O)C(=O)N[C@@H](CCCCN)C(=O)N[C@@H](CC(=O)O)C(=O)N[C@@H](CCCCN)C(=O)N[C@@H](CC(=O)O)C(=O)N[C@@H](CC(N)=O)C(=O)N[C@H](C(=O)N[C@@H](C)C(=O)N1CCC[C@H]1C(=O)N1CCC[C@H]1C(=O)N[C@H](C(=O)N[C@@H](CC(N)=O)C(=O)N[C@H](C(=O)NCC(=O)N[C@@H](CO)C(=O)N[C@@H](CC(N)=O)C(=O)NCC(=O)N1C[C@H](O)C[C@H]1C(N)=O)C(C)C)[C@@H](C)O)C(C)C)[C@@H](C)O [compound 5] ({C20 diacid-γGlu}-KCNTATCTVQRLADQIYQFTDKDKDNVAPPTNVGSNG[Hyp]-NH2; disulfide 2-7) | 0.006 nM | > 5000 nM
CC[C@H](C)[C@H](NC(=O)[C@H](CCC(N)=O)NC(=O)[C@H](Cc1c[nH]cn1)NC(=O)[C@H](C)NC(=O)[C@H](CC(C)C)NC(=O)[C@H](CCCNC(=N)N)NC(=O)[C@H](CCC(N)=O)NC(=O)[C@@H](NC(=O)[C@@H](NC(=O)[C@@H]1CSSC[C@H](NC(=O)[C@H](CCCCN)NC(=O)CC[C@H](NC(=O)CCCCCCCCCCCCCCCCCCC(=O)O)C(=O)O)C(=O)N[C@@H](CC(N)=O)C(=O)N[C@@H]([C@@H](C)O)C(=O)N[C@@H](C)C(=O)N[C@@H]([C@@H](C)O)C(=O)N1)[C@@H](C)O)C(C)C)C(=O)N[C@@H](CC(N)=O)C(=O)N[C@@H](CCC(N)=O)C(=O)N[C@@H](Cc1ccccc1)C(=O)N[C@H](C(=O)N[C@@H](CC(=O)O)C(=O)N[C@@H](CCCCN)C(=O)N[C@@H](CC(=O)O)C(=O)N[C@@H](CCCCN)C(=O)N[C@@H](CC(=O)O)C(=O)N[C@@H](CC(N)=O)C(=O)N[C@H](C(=O)N[C@@H](C)C(=O)N1CCC[C@H]1C(=O)N1CCC[C@H]1C(=O)N[C@H](C(=O)N[C@@H](CC(N)=O)C(=O)N[C@H](C(=O)NCC(=O)N[C@@H](CO)C(=O)N[C@@H](CC(N)=O)C(=O)NCC(=O)N1C[C@H](O)C[C@H]1C(N)=O)C(C)C)[C@@H](C)O)C(C)C)[C@@H](C)O [compound 11] ({C20 diacid-γGlu}-KCNTATCTVQRLAHQINQFTDKDKDNVAPPTNVGSNG[Hyp]-NH2; disulfide 2-7) | 0.007 nM | > 5000 nM
CC[C@H](C)[C@H](NC(=O)[C@H](C)NC(=O)CNC(=O)[C@H](Cc1ccccc1)NC(=O)[C@H](CC(N)=O)NC(=O)[C@H](CC(N)=O)NC(=O)[C@H](CO)NC(=O)[C@H](CO)NC(=O)[C@H](Cc1c[nH]cn1)NC(=O)[C@@H](NC(=O)[C@H](CC(C)C)NC(=O)[C@H](Cc1ccccc1)NC(=O)[C@H](CC(N)=O)NC(=O)[C@H](C)NC(=O)[C@H](CC(C)C)NC(=O)[C@H](CCCNC(=N)N)NC(=O)[C@H](CCC(N)=O)NC(=O)[C@@H](NC(=O)[C@H](C)NC(=O)[C@@H]1CSSC[C@H](NC(=O)[C@@H](N)CCCCN)C(=O)N[C@@H](CC(N)=O)C(=O)N[C@@H]([C@@H](C)O)C(=O)N[C@@H](C)C(=O)N[C@@H]([C@@H](C)O)C(=O)N1)[C@@H](C)O)C(C)C)C(=O)N[C@@H](CC(C)C)C(=O)N1CCC[C@H]1C(=O)N[C@@H](CO)C(=O)N[C@H](C(=O)N[C@@H](CCCCN)C(=O)N[C@H](C(=O)NCC(=O)N[C@@H](CO)C(=O)N[C@@H](CC(N)=O)C(=O)NCC(=O)N[C@@H](Cc1ccc(O)cc1)C(N)=O)C(C)C)[C@@H](C)O [compound 59] (H-KCNTATCATQRLANFLVHSSNNFGAILPSTKVGSNGY-NH2; disulfide 2-7) | 0.012 nM | > 5000 nM
